Experimental data published in ChEMBL document CHEMBL4346704, “Novel symmetric bis-benzimidazoles: Synthesis, DNA/RNA binding and antitrypanosomal activity” (Eur J Med Chem, 2019).
Activity calls are given as the source filed them. The calls are words filed in the database; no cut-off is given here.

What was measured:
[1] = Binding affinity to polyA-polyU dsRNA (unknown origin) assessed as hypochromic effect by UV-vis spectrophotometric method relative to control; format: nucleic-acid assay; parameters: concentration or dose not given beside the values
[2] = tested on: Poly(dA-dU)oligonucleotide; test: Binding affinity to polyA-polyU dsRNA (unknown origin) assessed as change in melting temperature at 0.3 ratio of compound to RNA by spectrophotometric analysis; format: nucleic-acid assay
[3] = tested on: Calf thymus DNA; test: Binding affinity to calf thymus DNA assessed as change in melting temperature at compound to calf thymus DNA polynucleotide ratio of 0.5 by spectrophotometric analysis; format: nucleic-acid assay; conditions: Bos taurus
[4] = tested on: Calf thymus DNA; test: Binding affinity to calf thymus DNA assessed as change in melting temperature at compound to calf thymus DNA polynucleotide ratio of 0.3 by spectrophotometric analysis; format: nucleic-acid assay; conditions: Bos taurus
[5] = tested on: Calf thymus DNA; test: Binding affinity to calf thymus DNA by UV-vis spectrophotometric method; format: nucleic-acid assay; conditions: Bos taurus
[6] = tested on: Calf thymus DNA; test: Binding affinity to calf thymus DNA assessed as hypochromic effect by UV-vis spectrophotometric method relative to control; format: nucleic-acid assay; parameters: concentration or dose not given beside the values; conditions: Bos taurus
[7] = Ratio of compound concentration to polynucleotide phosphate concentration for binding affinity to polyA-polyU dsRNA (unknown origin); format: nucleic-acid assay
[8] = tested on: Poly(dA-dU)oligonucleotide; test: Binding affinity to polyA-polyU dsRNA (unknown origin) assessed as change in melting temperature at 0.5 ratio of compound to RNA by spectrophotometric analysis; format: nucleic-acid assay
[9] = tested on: Calf thymus DNA; test: Ratio of compound concentration to polynucleotide phosphate concentration for binding affinity to calf thymus DNA; format: nucleic-acid assay; conditions: Bos taurus
[10] = tested on: L6; test: Cytotoxicity against rat L6 cells incubated for 6 days by resazurin based fluorescence assay; format: cell-based; conditions: L6, 144 h
[11] = tested on: Calf thymus DNA; test: Binding affinity to calf thymus DNA assessed as conformational change by circular dichroism analysis; format: nucleic-acid assay; conditions: Bos taurus
[12] = tested on: Calf thymus DNA; test: Binding affinity to calf thymus DNA assessed as change in melting temperature at compound to calf thymus DNA polynucleotide ratio of 0.1 by spectrophotometric analysis; format: nucleic-acid assay; conditions: Bos taurus
[13] = tested on: Trypanosoma brucei; test: Antitrypanosomal activity against Trypanosoma brucei 221 incubated for 48 hrs by resazurin based fluorescence assay; format: functional, organism-based; conditions: Trypanosoma brucei, 221, 48 h
[14] = tested on: Poly(dA-dU)oligonucleotide; test: Binding affinity to polyA-polyU dsRNA (unknown origin) assessed as binding constant by UV-vis spectrophotometric method; format: nucleic-acid assay
[15] = Binding affinity to polyA-polyU dsRNA (unknown origin) assessed as change in melting temperature at 0.1 ratio of compound to RNA by spectrophotometric analysis; format: nucleic-acid assay

Compound | Activity [1] [%] | ΔTm [2] [°C] | ΔTm [3] [°C] | ΔTm [4] [°C] | log Ks [5] | Activity [6] [%] | Ratio [7] | ΔTm [8] [°C] | Ratio [9] | Activity [11] | ΔTm [12] [°C] | IC50 [13] [µM] | IC90 [13] [µM] | log Ks [14] | ΔTm [15] [°C] | IC50 [10] [µM]
c1ccc2[nH]c(-c3ccc(Cn4cc(COCc5cn(Cc6ccc(-c7nc8ccccc8[nH]7)o6)nn5)nn4)o3)nc2c1 | 41 | 0 | 1.1 | 0.7 | 6.22 | 36 | 0.31 | 0.6 | 0.29 | inactive | 0.6 | > 15 | – | 5.76 | 0.6 | –
Clc1ccc2[nH]c(-c3ccc(Cn4cc(COCc5cn(Cc6ccc(-c7nc8cc(Cl)ccc8[nH]7)o6)nn5)nn4)o3)nc2c1 | 52 | 0.6 | 2.6 | 1.2 | 5.21 | 35 | 0.19 | 0.6 | 0.21 | inactive | 0.7 | 6.4 | 11.8 | 5.12 | 1 | –
Fc1ccc2[nH]c(-c3ccc(Cn4cc(COCc5cn(Cc6ccc(-c7nc8cc(F)ccc8[nH]7)o6)nn5)nn4)o3)nc2c1 | 51 | 1 | 0 | 0.5 | 5.93 | 35 | 0.35 | 1 | 0.47 | inactive | 0 | 7.9 | > 25 | 6.43 | 1 | –
c1ccc2[nH]c(-c3ccc(Cn4cc(COc5ccc(-c6ccc(OCc7cn(Cc8ccc(-c9nc%10ccccc%10[nH]9)o8)nn7)cc6)cc5)nn4)o3)nc2c1 | 12 | 0 | – | 0 | 4 | 14 | – | – | 0.3 | inactive | – | > 10 | – | – | – | –
CC(C)NC(=N)c1ccc2[nH]c(-c3ccc(Cn4cc(COCc5cn(Cc6ccc(-c7nc8cc(C(=N)NC(C)C)ccc8[nH]7)o6)nn5)nn4)o3)nc2c1 | 13 | 2 | 11.1 | 9.7 | 5.68 | 21 | 0.3 | 1.6 | 0.67 | Active | 8.1 | 7.9 | 10.8 | 6.16 | 1.3 | –
c1ccc2[nH]c(-c3ccc(Cn4cc(COc5ccc(OCc6cn(Cc7ccc(-c8nc9ccccc9[nH]8)o7)nn6)cc5)nn4)o3)nc2c1 | 22 | 0 | 2.6 | 3.2 | 6.18 | 35 | 0.3 | 0 | 0.1 | inactive | 2.8 | > 15 | – | 5.5 | 0 | –
c1ccc2[nH]c(-c3ccc(Cn4cc(CCCc5cn(Cc6ccc(-c7nc8ccccc8[nH]7)o6)nn5)nn4)o3)nc2c1 | 10 | 0 | 3.2 | 1.2 | 6.55 | 45 | 0.13 | 0 | 0.19 | inactive | 2.6 | > 15 | – | 6.54 | 0 | –

These reach a lower IC50 [13]. Values come first.

Activity [1] [%] | ΔTm [2] [°C] | ΔTm [3] [°C] | ΔTm [4] [°C] | log Ks [5] | Activity [6] [%] | Ratio [7] | ΔTm [8] [°C] | Ratio [9] | Activity [11] | ΔTm [12] [°C] | IC50 [13] [µM] | IC90 [13] [µM] | log Ks [14] | ΔTm [15] [°C] | Compound | IC50 [10] [µM]
34 | 0 | 2.5 | 4.1 | 7.04 | 27 | 0.5 | 0 | 0.05 | inactive | 2.1 | 3 | 7.2 | < 4 | 0 | Clc1ccc2[nH]c(-c3ccc(Cn4cc(CCCc5cn(Cc6ccc(-c7nc8cc(Cl)ccc8[nH]7)o6)nn5)nn4)o3)nc2c1 | > 300
46 | 0.6 | 13.8 | 13 | 6.61 | 13 | 0.3 | 9.3 | 0.05 | Active | 13.6 | 3.6 | 5.5 | 5.7 | 1.5 | Cl.Cl.N=C(N)c1ccc2[nH]c(-c3ccc(Cn4cc(CCCc5cn(Cc6ccc(-c7nc8cc(C(=N)N)ccc8[nH]7)o6)nn5)nn4)o3)nc2c1 | 198
24 | 3.5 | 12.5 | 10.4 | 5.93 | 37 | 0.43 | 3.3 | 0.47 | Active | 9.2 | 3.3 | 4.7 | 6.65 | 2.2 | Cl.Cl.N=C(N)c1ccc2[nH]c(-c3ccc(Cn4cc(COCc5cn(Cc6ccc(-c7nc8cc(C(=N)N)ccc8[nH]7)o6)nn5)nn4)o3)nc2c1 | 88.6
31 | 1.3 | 2 | 1.3 | 6.56 | 46 | 0.5 | 2 | 0.15 | inactive | 0.8 | 4 | 8.9 | 4.94 | 0.8 | Fc1ccc2[nH]c(-c3ccc(Cn4cc(CCCc5cn(Cc6ccc(-c7nc8cc(F)ccc8[nH]7)o6)nn5)nn4)o3)nc2c1 | 221
11 | 0 | 3.4 | 1.2 | 5.92 | 25 | – | 0 | 0.17 | inactive | 0.5 | 3.4 | 6.7 | – | 0 | Fc1ccc2[nH]c(-c3ccc(Cn4cc(COc5ccc(OCc6cn(Cc7ccc(-c8nc9cc(F)ccc9[nH]8)o7)nn6)cc5)nn4)o3)nc2c1 | 219
7 | 0 | 2 | 1.5 | 6.33 | 27 | – | 0 | 0.65 | inactive | 0.7 | 1.4 | 2.5 | – | 0 | Clc1ccc2[nH]c(-c3ccc(Cn4cc(COc5ccc(OCc6cn(Cc7ccc(-c8nc9cc(Cl)ccc9[nH]8)o7)nn6)cc5)nn4)o3)nc2c1 | > 270
15 | 0 | – | 0 | 4 | 16 | – | – | 0.3 | inactive | – | 0.37 | 9.7 | – | – | Clc1ccc2[nH]c(-c3ccc(Cn4cc(COc5ccc(-c6ccc(OCc7cn(Cc8ccc(-c9nc%10cc(Cl)ccc%10[nH]9)o8)nn7)cc6)cc5)nn4)o3)nc2c1 | 30.4
